Experimental findings from patent publication EP4678638A1, “NEW E3 UBIQUITIN LIGASE LIGAND, PROTEIN DEGRADATION AGENT AND USE THEREOF” (priority 2023, dated 2024) are described below.

Structures are written as SMILES.

One assay deals with EGFR. Kind of assay: Western blot degradation of EGFR (H1975 Cell). It counts as cell-based, Human. The settings on record: Table D2. An outline of the steps:
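After compound exposure, cells were harvested and lysates run on SDS-PAGE, transferred to nitrocellulose and probed with antibodies. Remaining target (%) was computed from band grayscale relative to an internal control protein and normalised; degradation (%) was 100% minus that.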
A general note: A western blot detects proteins with antibodies after separation by electrophoresis.

For assay [1], the system named is H1975-1µM Osimertinib cells. Nature of the assay: CCK-8 proliferation, osimertinib-resistant H1975 cells. It counts as cell-based, Human. The settings on record: Homo sapiens, NCI-H1975; CCK-8; osimertinib-resistant H1975 cells obtained by treating H1975 cells with 1 µM Osimertinib for 3 months; read-out: Inhibitory activity (IC50) on tumor cell proliferation, H1975-1µm Osimertinib. The procedure:
(§1) The tumor cells used herein were cultured in a cell culture medium listed in table A1 at 37°C in an incubator with 5% CO2. Prior to experimentation, all cell lines used were correctly identified by STR profiling, and tested negative for mycoplasma contamination using a mycoplasma detection kit through routine screenings. Table A1. Tumor cells and cell culture medium used in the present disclosure
(§2) IC50 values of the compounds of the present disclosure (including the compounds in Table 1, and compounds of examples) were measured using the Meilun Cell Counting Kit-8 kit from Dalian Meilun Biotech Co., Ltd. Assay details are as follows: tumor cells were seeded in a 96-well plate at a density listed in Table A2. After 24h, 100 µL of the inoculated cells were treated with 0.5µL of the compounds of the present disclosure (including the compounds in Tables 1 and 2, and compounds of examples) at 10 different successively decreasing concentrations (starting at the highest concentration of 10µM; 5-fold serial dilutions). After the cells were treated with the compounds of the present disclosure for a period of time, the cell viability detection reagent was added to the culture medium for cell viability assessment according to the instructions provided with the CCK-8 kit. […] The growth inhibition of the compounds of the present disclosure on cells was plotted by Prism Graphpad software, and the IC50 values of the compounds of the present disclosure were calculated therefrom. […] Seeding protocol and treatment time for tumor cells

Another assay concerns H1975. Nature of the assay: CCK-8 proliferation, NCI-H1975 (H1975). It counts as cell-based, Human. As to conditions: Homo sapiens, NCI-H1975; CCK-8; 96 hours; read-out: Inhibitory activity (IC50) on tumor cell proliferation, H1975. An outline of the steps:
(§3)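 Tumor cells were cultured at 37°C with 5% CO2, seeded, and after 24h treated with compounds at 10 concentrations starting at 10µM (5-fold serial dilutions).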

For another assay, the system named is HCC827. Kind of assay: CCK-8 proliferation, HCC827. It counts as cell-based, Human. As to conditions: Homo sapiens, HCC827; CCK-8; 96 hours; read-out: Inhibitory activity (IC50) on tumor cell proliferation, HCC827. An outline of the steps: as §3
Another assay concerns PC-9. Kind of assay: CCK-8 proliferation, PC-9. As to conditions: Homo sapiens, PC-9; CCK-8; 96 hours; read-out: Inhibitory activity (IC50) on tumor cell proliferation, PC-9. Type of assay: cell-based, Human. In short, it runs like this: as §3
The subject of another assay is MM.1R. Kind of assay: CCK-8 proliferation, MM.1R. Type of assay: cell-based. The settings on record: CCK-8, 72 hours, read-out: Inhibitory activity (IC50) on tumor cell proliferation, MM.1R. The procedure: as §1, §2

With `COc1cc(N2CCN(Cc3ccc(N4CCC(=O)NC4=O)nc3)CC2)c(C)cc1Nc1ncc(Br)c(Nc2ccc3nccnc3c2P(C)(C)=O)n1` [GT-05947, 1-(5-((4-(4-((5-bromo-4-((5-(dimethylphosphoryl)quinoxalin-6-yl)amino)pyrimidin-2-yl)amino)-5-methoxy-2-methylphenyl)piperazin-1-yl)methyl)pyridin-2-yl)dihydropyrimidine-2,4(1H,3H)-dione], the “Degradation of substrate protein EGFR (substrate protein remaining %)” value (“Degradation … (substrate protein remaining %)” below) in the assay with EGFR was “A (A is defined as 0% ≤ substrate protein remaining % ≤ 80%)”. Further, the IC50 fell in the range of 100 to 500 nM in assay [1], 100 to 500 nM in the assay with H1975, 100 to 500 nM in the assay with HCC827 and 50 to 100 nM in the assay on PC-9.
Take `COc1cc(N2CCC(N3CCN(Cc4cccc(N5CCC(=O)NC5=O)c4)CC3)CC2)c(C)cc1Nc1ncc(Br)c(Nc2ccc3nccnc3c2P(C)(C)=O)n1` [GT-04260, 1-(3-((4-(1-(4-((5-bromo-4-((5-(dimethylphosphoryl)quinoxalin-6-yl)amino)pyrimidin-2-yl)amino)-5-methoxy-2-methylphenyl)piperidin-4-yl)piperazin-1-yl)methyl)phenyl)dihydropyrimidine-2,4(1H,3H)-dione]: the “Degradation … (substrate protein remaining %)” value with EGFR is “A (A is defined as 0% ≤ substrate protein remaining % ≤ 80%)”. Further, the IC50 in assay [1] was 100 to 500 nM; in the assay with H1975, 50 to 100 nM; in the assay on HCC827 it was 50 to 100 nM; in the assay on PC-9, 50 to 100 nM.
Regarding `COc1cc(N2CCC(N(C)Cc3cccc(N4CCC(=O)NC4=O)c3)CC2)c(C)cc1Nc1ncc(Br)c(Nc2ccc3nccnc3c2P(C)(C)=O)n1` [GT-04214, 1-(3-(((1-(4-((5-bromo-4-((5-(dimethylphosphoryl)quinoxalin-6-yl)amino)pyrimidin-2-yl)amino)-5-methoxy-2-methylphenyl)piperidin-4-yl)(methyl)amino)methyl)phenyl)dihydropyrimidine-2,4(1H,3H)-dione], in the assay on EGFR, the “Degradation … (substrate protein remaining %)” value is “A (A is defined as 0% ≤ substrate protein remaining % ≤ 80%)”. For the same compound, the IC50 was in the range of 100 to 500 nM in assay [1], 10 to 50 nM in the assay with H1975, 100 to 500 nM with HCC827 and 50 to 100 nM in the assay on PC-9.
Regarding `O=C1CCN(c2ccc(CN3CCN(C4CCN(c5ccc(Nc6ncc7nc(Nc8ccccc8)n(C8CCCC8)c7n6)cc5)CC4)CC3)cc2)C(=O)N1` [GT-05917, 1-(4-((4-(1-(4-((9-cyclopentyl-8-(phenylamino)-9H-purin-2-yl)amino)phenyl)piperidin-4-yl)piperazin-1-yl)methyl)phenyl)dihydropyrimidine-2,4(1H,3H)-dione], in the assay with EGFR, the “Degradation … (substrate protein remaining %)” value is recorded as “A (A is defined as 0% ≤ substrate protein remaining % ≤ 80%)”. The IC50 in assay [1] was in the range of 500 to 1000 nM; with H1975, 100 to 500 nM; in the assay on HCC827 it was 1 to 10 nM; in the assay on PC-9, 1 to 10 nM.
Consider `CN(Cc1ccc(C2CCC(=O)NC2=O)cc1)C1CCN(c2ccc(C(N)=O)c(-c3ccc(Oc4ccccc4)cc3)n2)CC1` (centres unmarked) [GT-03828, 6-(4-((4-(2,6-dioxopiperidin-3-yl)benzyl)(methyl)amino)piperidin-1-yl)-2-(4-phenoxyphenyl)nicotinamide], for which, in the assay on MM.1R, the IC50 was in the range of 500 to 1000 nM.
With `COc1cc(N2CCN(Cc3cccc(N4CCC(=O)NC4=O)c3)CC2)c(C)cc1Nc1ncc(Br)c(Nc2ccc3nccnc3c2P(C)(C)=O)n1` [GT-04206, 1-(3-((4-(4-((5-bromo-4-((5-(dimethylphosphoryl)quinoxalin-6-yl)amino)pyrimidin-2-yl)amino)-5-methoxy-2-methylphenyl)piperazin-1-yl)methyl)phenyl)dihydropyrimidine-2,4(1H,3H)-dione], the “Degradation … (substrate protein remaining %)” value in the assay on EGFR is given as “A (A is defined as 0% ≤ substrate protein remaining % ≤ 80%)”. In addition, the IC50 (in assay [1]; with H1975; with HCC827; with PC-9) was 100 to 500 nM each time.
